Measured values as given in publication PMC5354820, “Novel PARP1/2 inhibitor mefuparib hydrochloride elicits potent in vitro and in vivo anticancer activity, characteristic of high tissue distribution” (Oncotarget, 2016).
Converted amounts (≈) assume the structure as drawn. Like-named read-outs stand apart in the source and are kept apart here. Values belong to the molecule of their own block, whether it stands above or below them.

Experiments:
SW620 xenografts = assay: SW620 subcutaneous xenografts in nude mice, alone or with TMZ; type: in vivo; conditions: SW620, d21, TMZ 2 mg/kg alone
Method: After 1~2 passages in nude mice, the well-grown xenografts were cut into 1.5-mm^3 fragments that subsequently were transplanted s.c. into the right flank of nude mice. When xenografts reached a volume of 100–200 mm^3 (230-240 mm^3 for V79), the mice were randomized to control and treated groups and received the corresponding treatments as indicated. […] The size of xenografts and the body weight of mice were measured individually twice per week. The xenografts were measured for the maximal width (X) and length (Y) and the volume (V) was calculated as (X^2Y)/2. Relative tumor volume (RTV) was calculated as Vt / V0, where V0 and Vt were the volume before and after treatments, respectively.

[1] = cited from earlier work
[2] = Metabolites in monkey plasma; type: in vivo; conditions: monkeys, MPH 10 mg/kg oral; for share of the total amount of all the metabolites and MPH in the plasma: 3-h time point; for average remaining amount, of the corresponding plasma amount at 3 h: 12-h time point
Method: SD rats and cynomolgus monkeys were used to do the in vivo pharmacokinetic studies. […] The metabolites in the monkey plasma were analyzed by UPLC-UV/Q-TOF MS. The metabolite data were collected with Analyst® TF V1.6 (AB Sciex Inc., Framingham, MA) and Masslynx V4.1 (Waters Corporation, Milford, MA) and analyzed with PeakView® V1.2 and MetabolitePilot V1.5 (AB Sciex).

V-C8 cells = assay: Proliferative inhibition assay, V-C8; type: cell-based, Chinese hamster; conditions: Cricetulus griseus, V-C8, 72 h, read-out: IC50 (mean ± SD)
Method: (§2) Cells cultured in 96-well plates were treated with PARP inhibitors alone or in combination with the indicated anticancer drugs for 3 days (Chinese hamster cells and Ewing sarcoma cells) or 7 days (all the other cells). Then the cells were subjected to the Cell Counting Kit 8 (CCK8) assays (Chinese hamster cells, Ewing sarcoma cells, HCC1937 and MDA-MB-436 cells) or by Sulforhodamine B (SRB) assays (all the other cells) as described previously [18, 19]. […] The averaged IC50 values (mean ± SD) were determined with the Logit method from three independent tests.

V79 cells = assay: Proliferative inhibition assay, V79; type: cell-based, Chinese hamster; conditions: Cricetulus griseus, V79, 72 h, read-out: IC50 (mean ± SD)
Method: as §2

V-C8+H13 cells = assay: Proliferative inhibition assay, V-C8+H13; type: cell-based, Chinese hamster; conditions: Cricetulus griseus, 72 h, read-out: IC50 (mean ± SD)
Method: as §2

MDA-MB-436 cells = assay: Proliferative inhibition assay, MDA-MB-436; type: cell-based; conditions: Homo sapiens, MDA-MB-436, 168 h, read-out: IC50 (mean ± SD)
Method: as §2

HCC1937 cells = assay: Proliferative inhibition assay, HCC1937; type: cell-based; conditions: Homo sapiens, HCC1937, 168 h, read-out: IC50 (mean ± SD)
Method: as §2

UWB1.289 cells = assay: Proliferative inhibition assay, UWB1.289; type: cell-based; conditions: Homo sapiens, UWB1289, 168 h, read-out: IC50 (mean ± SD)
Method: as §2

Capan-1 cells = assay: Proliferative inhibition assay, Capan-1; type: cell-based; conditions: Homo sapiens, CAPAN-1, 168 h, read-out: IC50 (mean ± SD)
Method: as §2

DoTc2-4510 cells = assay: Proliferative inhibition assay, DoTc2-4510; type: cell-based; conditions: Homo sapiens, DoTc2-4510, 168 h, read-out: IC50 (mean ± SD)
Method: as §2

HCT-15 cells = assay: Proliferative inhibition assay, HCT-15; type: cell-based; conditions: Homo sapiens, HCT-15, 168 h, read-out: IC50 (mean ± SD)
Method: as §2

U251 cells = assay: Proliferative inhibition assay, U251; type: cell-based; conditions: Homo sapiens, U-251, 168 h, read-out: IC50 (mean ± SD)
Method: as §2

PC-3 cells = assay: Proliferative inhibition assay, PC-3; type: cell-based; conditions: Homo sapiens, PC-3, 168 h, read-out: IC50 (mean ± SD)
Method: as §2

SK-ES-1 cells = assay: Proliferative inhibition assay, SK-ES-1; type: cell-based; conditions: Homo sapiens, SK-ES1, 72 h, read-out: IC50 (mean ± SD)
Method: as §2

RD-ES cells = assay: Proliferative inhibition assay, RD-ES; type: cell-based; conditions: Homo sapiens, 72 h, read-out: IC50 (mean ± SD)
Method: as §2

V-C8 xenografts = type: in vivo; conditions: mouse, in vivo
Source text: (§1) V-C8, V79, MDA-MB-436 and SW620 xenografts were established by inoculating 5 × 10^6 cells s.c. in nude mice, respectively. After 1~2 passages in nude mice, the well-grown xenografts were cut into 1.5-mm^3 fragments that subsequently were transplanted s.c. into the right flank of nude mice. When xenografts reached a volume of 100–200 mm^3 (230-240 mm^3 for V79), the mice were randomized to control and treated groups and received the corresponding treatments as indicated. […]. The size of xenografts and the body weight of mice were measured individually twice per week. The xenografts were measured for the maximal width (X) and length (Y) and the volume (V) was calculated as (X^2Y)/2. Relative tumor volume (RTV) was calculated as Vt / V0, where V0 and Vt were the volume before and after treatments, respectively. The in vivo anticancer activity was judged by their T/C (%) values. T/C (%) was calculated as (TRTV / CRTV)×100%, where TRTV and CRTV represented the RTV of the treatment and the vehicle group, respectively.

V79 xenografts = assay: V79 subcutaneous xenografts in nude mice; type: in vivo; conditions: similar treatments as in V-C8 xenografts
Source text: as §1

MDA-MB-436 xenografts = assay: MDA-MB-436 subcutaneous xenografts in nude mice; type: in vivo; conditions: oral; MPH once every other day, AZD2281 30 mg/kg each day
Source text: as §1

γH2AX in V-C8 cells = assay: γH2AX accumulation in cultured V-C8 cells; type: cell-based, Chinese hamster; conditions: V-C8 (BRCA2−/−), concentration-dependent
[3] = system: γH2AX in MDA-MB-436 cells; assay: γH2AX accumulation in cultured MDA-MB-436 cells; type: cell-based, human; conditions: MDA-MB-436 (BRCA1−/−), concentration-dependent
[4] = set-up: method as in PMID 19553641; conditions: humans; cited from earlier work
[5] = set-up: method as in PMID 18800822; conditions: rats; cited from earlier work
[6] = set-up: method as in PMID 18800822; conditions: dogs; cited from earlier work
P-glycoprotein (P-gp) = system: P-glycoprotein (P-gp); set-up: method as in PMID 26374559; conditions: cited from earlier work
[7] = set-up: method as in PMID 19553641; conditions: cited from earlier work

SMILES: Cn1nnc2c(C(N)=O)ncn2c1=O [TMZ, temozolomide, reference compound]
FTV (fractional tumor volume), TMZ alone (SW620 xenografts): 0.16

SMILES: C[C@]1(c2nc3c(C(N)=O)cccc3[nH]2)CCCN1 [veliparib]
water solubility [1]: < 1000 µg/mL

SMILES: CN(Cc1ccc(-c2cc3cc(F)cc(C(N)=O)c3o2)cc1)OC1OC(C(=O)O)C(O)C(O)C1O (centres unmarked) [M6]
share of the total amount of all the metabolites and MPH in the plasma [2]: 1.63%

SMILES: NC(=O)c1cccc2cn(-c3ccc([C@@H]4CCCNC4)cc3)nc12 [niraparib]
water solubility [1]: < 1000 µg/mL

SMILES: O=C(c1cc(Cc2n[nH]c(=O)c3ccccc23)ccc1F)N1CCN(C(=O)C2CC2)CC1 [AZD2281, olaparib, reference compound]
IC50 (V-C8 cells): 610 ± 40 nM
IC50 (V79 cells): 15600 ± 1150 nM
IC50 (V-C8+H13 cells): 13600 ± 1850 nM
IC50 (MDA-MB-436 cells): 20 ± 10 nM
IC50 (HCC1937 cells): 7280 ± 1910 nM
IC50 (UWB1.289 cells): 2980 ± 1650 nM
IC50 (Capan-1 cells): 1730 ± 320 nM
IC50 (DoTc2-4510 cells): 890 ± 280 nM
IC50 (HCT-15 cells): 25700 ± 4700 nM
IC50 (U251 cells): 2500 ± 640 nM
IC50 (PC-3 cells): 4700 ± 690 nM
IC50 (SK-ES-1 cells): 1700 ± 130 nM
IC50 (RD-ES cells): 670 ± 140 nM
death or body-weight loss of the animals (V-C8 xenografts): did not cause death or significant body-weight loss
effect on growth of V79 xenografts (V79 xenografts): did not inhibit the growth of V79 xenografts
effect on growth of MDA-MB-436 (BRCA1−/−) xenografts (MDA-MB-436 xenografts): between those of MPH at 40 mg/kg and 80 mg/kg every other day
γH2AX levels (DSB accumulation) (γH2AX in V-C8 cells): increased levels of γH2AX
γH2AX levels (DSB accumulation) [3]: increased levels of γH2AX
water solubility [1]: < 1000 µg/mL
solubility in aqueous media ([1]; independent of pH): 100 µg/mL (≈ 230 µM)
average Vd [4]: 40.3 L
Vd [5]: 1.18 L/kg
Vd [6]: 1.3 L/kg
P-gp substrate (P-glycoprotein (P-gp)): substrate of the drug transporter P-glycoprotein (P-gp)
passage of the blood-brain barrier [7]: hard to go through the blood-brain barrier

SMILES: Cn1ncnc1[C@H]1c2n[nH]c(=O)c3cc(F)cc(c23)N[C@@H]1c1ccc(F)cc1 [talazoparib]
water solubility [1]: < 1000 µg/mL

SMILES: CNCc1ccc(-c2[nH]c3cc(F)cc4c3c2CCNC4=O)cc1 [rucaparib]
water solubility [1]: < 1000 µg/mL

Second part, the molecule after the results:

share of the total amount of all the metabolites and MPH in the plasma [2]: 52.18%
average remaining amount, of the corresponding plasma amount at 3 h [2]: 3.13%
SMILES: CNCc1ccc(-c2cc3cc(F)cc(C(=O)O)c3o2)cc1 [M1]

share of the total amount of all the metabolites and MPH in the plasma [2]: 0.72%
SMILES: CC(=O)NCc1ccc(-c2cc3cc(F)cc(C(=O)O)c3o2)cc1 [M5]

share of the total amount of all the metabolites and MPH in the plasma [2]: 1.86%
average remaining amount, of the corresponding plasma amount at 3 h [2]: 23.54%
SMILES: NC(=O)c1cc(F)cc2cc(-c3ccc(C(=O)O)cc3)oc12 [M2]

share of the total amount of all the metabolites and MPH in the plasma [2]: 0.24%
SMILES: CNC(=O)c1ccc(-c2cc3cc(F)cc(C(N)=O)c3o2)cc1 [M4]

share of the total amount of all the metabolites and MPH in the plasma [2]: 4.18%
SMILES: CNCc1ccc(-c2cc3cc(F)cc(C(=O)OC4OC(C(=O)O)C(O)C(O)C4O)c3o2)cc1 (centres unmarked) [M3]
